{"source": "ChEMBL document CHEMBL1151721", "about": "“Fagraldehyde, a secoiridoid isolated from Fagraea fragrans” (J Nat Prod, 2008)", "data": [{"test_system": "Plasmodium falciparum", "assay": "Antiplasmodial activity against chloroquine-resistant Plasmodium falciparum W2 by FACS", "assay_type": "functional, organism-based", "units": {"IC50": "µg/mL"}, "values": [{"smiles": "CC1OC(=O)C(C=O)=C2C=COC=C21", "note": "(centres undefined) [FAGRALDEHYDE]", "IC50": 22.4}, {"smiles": "C=C[C@@H]1C2=CCOC(=O)C2=CO[C@H]1O[C@@H]1O[C@H](CO)[C@@H](O)[C@H](O)[C@H]1O", "note": "[GENTIOPICROSIDE]", "IC50": "> 50"}, {"smiles": "C=C[C@H]1[C@H](O[C@@H]2O[C@H](CO)[C@@H](O)[C@H](O)[C@H]2O)OC=C2C(=O)OCC[C@H]21", "note": "[SWEROSIDE]", "IC50": "> 50"}, {"smiles": "C=C[C@H]1[C@H](O[C@@H]2O[C@H](CO)[C@@H](O)[C@H](O)[C@H]2O)OC=C2C(=O)OCC[C@]21O", "note": "[SWERTIAMARIN]", "IC50": "> 50"}]}]}
